Measured values taken from US9891235B2, “Pathway specific assays for predicting irritable bowel syndrome diagnosis” (NESTEC S.A., priority 2013, dated 2018).

How the values were obtained:
anti-KYA-L antibody = test: Competitive assay with biotinylated kynurenic acid, competitors; type: binding, rabbit; details: increasing amounts of competitor, FIG. 18
Description: Also, the cross-reactivity of the antiserum was tested using a competitive assay as diagramed in FIG. 12B. The biotinylated antigen (e.g., biotinylated Ser-D) was coated onto a streptavidin plate. Serotonin (5-HT) or pathway metabolites thereof (e.g., Tryp, 5-OH Tryp or 5-HIAA) in human serum were derivatized and added to the antiserum. The mixture was added to the plate and incubated for 1 hour at RT. The plate was washed several times with wash buffer. The goat anti-rabbit antibody-HRP conjugate solution was added and incubated for 1 hour at RT. The plate was washed several times in wash buffer. A color substrate was added for the colorimetric reaction and stop solution was added prior to reading the plate at 405 nm.
The cross-reactivity of the anti-KYA-L antibody was tested using the competitive assay described above. Briefly, kynurenic acid metabolites, such as L-kynurenine (Ky), 3-hydroxy-DL-kynurenine (H-Ky) and L-tryptophan (Tryp) were used to compete with biotinylated kynurenic acid for antibody binding.

[1] = Stability of 5-HT and 5-HIAA (TLC, loss of signal); type: physicochemical

| Compound | effect of competitor on level of anti-KYA-L detected (anti-KYA-L antibody) | sensitivity to oxygen / stability [1] | time in which degradation occurs ([1]; 4° C., from thawing, TLC (FIG. 3)) | stability (FIG. 4) ([1]; during a period of 1 week) |
| --- | --- | --- | --- | --- |
| Nc1c(O)cccc1C(=O)CC(N)C(=O)O (racemic) [H-Ky, 3-hydroxy-DL-kynurenine] | did not change | – | – | – |
| NCCc1c[nH]c2ccc(O)cc12 [Compound 5-HT, serotonin] | – | very unstable | about 7 hours | unstable |
| NCCCCCC(=O)Nc1ccc2nc(C(=O)O)cc(O)c2c1 [KYA-L, 6-(6-aminohexanamido)-4-hydroxyquinoline-2-carboxylic acid] | competed | – | – | – |
| Nc1ccccc1C(=O)C[C@H](N)C(=O)O [Ky, L-kynurenine] | did not change | – | – | – |
| N[C@@H](Cc1c[nH]c2ccccc12)C(=O)O [Trypt, L-tryptophan] | did not change | – | – | – |
